pIC50, pKi: −log10 of the molar value.
Tests used:
MM1R = assay: Cell viability assay; format: cell-based; conditions: MM.1R, 24 h, read-out: AZD5991 24h GI50
Description: (§4) Cells were plated at 3000 cells/well in 384-well white plates in corresponding cell growth media. […] Caspase-3/7 activation was subsequently determined using a Caspase-Glo 3/7 Reagent (Promega) and viability was assayed using the CellTiter-Glo Reagent (Promega) as described in manufacturer’s instructions. Dose–response curves for caspase-3/7 activation and viability were plotted and analyzed (including EC50 and GI50 determination) using GraphPad Prism.

U2OS = assay: Cell viability assay; format: cell-based; conditions: Homo sapiens, 24 h; U2OS (Others); read-out: AZD5991 24h GI50
Description: as §4

GRANTA519 = assay: Cell viability assay; format: cell-based; conditions: Homo sapiens, Granta-519, 24 h; GRANTA519 (NHL); read-out: AZD5991 24h GI50
Description: as §4

Bcl-w = molecular target: T1, Bcl-w (Homo sapiens, UniProt Q92843); assay: TR-FRET binding assay
T1 construct: N-Terminal 6His-tagged Bcl-w protein from Bcl-w (M1-R171); made in house; host or cells: E. coli
T1 sequence (Q92843 1-171): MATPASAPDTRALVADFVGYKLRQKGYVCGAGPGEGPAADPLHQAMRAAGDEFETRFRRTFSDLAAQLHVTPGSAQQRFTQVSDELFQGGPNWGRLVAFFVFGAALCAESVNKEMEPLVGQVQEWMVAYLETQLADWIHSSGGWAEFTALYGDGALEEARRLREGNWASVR
Description: (§1) N-terminal GST-tagged-Mcl-1 protein from Mcl-1 (E171-G327), N-terminal GST-tagged Bcl-xL protein from Bcl-xL (1-209), N-Terminal 6His-tagged Bfl-1 protein from Bfl-1 (M1-K151), N-Terminal 6His-tagged Bcl-w protein from Bcl-w (M1-R171), and C-Terminal 6His-tagged Bcl-2 protein from Bcl-2 (M1-F212) were expressed as a tagged fusion protein in E. coli and subsequently purified via Glutathione Sepharose-affinity or Ni-NTA resin purification, and size-exclusion chromatography.
(§2) For TR-FRET, tagged fusion proteins were incubated with a Europium-labeled antibody and a HyLite Fluor 647-labeled peptide, or a biotin-labeled peptide with a streptavidin-labeled ulight fluorophore allowing the assembly of donor and acceptor dye pairs for use in protein-binding assays.
(§3) The reaction final concentrations for Mcl-1 were 1.5 nM GST-Mcl-1, 0.5 nM LanthaScreen Eu tagged GST antibody (LifeTechnologies cat#PV5594), and 4 nM HyLite Fluor 647-labeled Bim peptide C (Hilyte647 C2 Maleimide)-[…]; for Bcl-xl were 2 nM GST-Bcl-xl, 2 nM LanthaScreen Eu-tagged GST antibody, and 10 nM HyLite Fluor 647-labeled BAK peptide C(Hilyte647 C2 Maleimide)-[…]; for Bfl-1 were 4 nM His-Bfl-1, 0.5 nM LanthaScreen Eu-tagged HIS antibody (PerkinElmer cat#AD0205), and 10 nM HyLite Fluor 647-labeled BIM peptide C(Hilyte647-C2-Maleimide)-[…]; for Bcl-2 and Bcl-w: 2 nM His-Bcl-2, or 2 nM His-Bcl-w, with 0.5 nM LanthaScreen Eu-tagged HIS antibody, 10 nM biotin-labeled Bim peptide (Biotin-lc-[…]), and 2.4 nM a streptavidin labeled ULight Fluorophore (PerkinElmer cat#TRF0102-D). Reactions were incubated at 24 °C for 120–180 min before reading on a Tecan (InfiniteM1000 spectrofluorometer) with excitation at 340 nm and emission at […] and 665 nm. Ratio of fluorescent emission intensity at 665–620 nm was calculated for each reaction (equation 1). Percent inhibition was calculated based upon min (control compound) vs. max (DMSO) according to Eq. (2) and the IC50 was derived the smart fit curve (Genedata screener) of % inhibition vs. concentration. Ki values were calculated from Eq. […]

Bfl-1 = molecular target: T2, Bfl-1 (Homo sapiens, UniProt Q16548); assay: TR-FRET binding assay
T2 construct: N-Terminal 6His-tagged Bfl-1 protein from Bfl-1 (M1-K151); made in house; host or cells: E. coli
Description: as §1, §2, §3

Bcl-2 = molecular target: T3, Bcl-2 (Homo sapiens, UniProt P10415); assay: TR-FRET binding assay
T3 construct: C-Terminal 6His-tagged Bcl-2 protein from Bcl-2 (M1-F212); made in house; host or cells: E. coli
Description: as §1, §2, §3

Bcl-xL = Bcl-xL (Homo sapiens, UniProt Q07817); assay: TR-FRET binding assay
Description: as §1, §2, §3

GIST T1 = assay: Cell viability assay; format: cell-based; conditions: Homo sapiens, GISTT1, 24 h; GIST T1 (GI); read-out: AZD5991 24h GI50
Description: as §4

KG1a = assay: Cell viability assay; format: cell-based; conditions: Homo sapiens, KG-1a, 24 h; KG1a (AML); read-out: AZD5991 24h GI50
Description: as §4

HCC827 = assay: Cell viability assay; format: cell-based; conditions: Homo sapiens, 24 h; HCC827 (Lung); read-out: AZD5991 24h GI50
Description: as §4

U266B1 = assay: Cell viability assay; format: cell-based; conditions: 24 h; U266B1 (MM); read-out: AZD5991 24h GI50
Description: as §4

H446 = assay: Cell viability assay; format: cell-based; conditions: Homo sapiens, NCI-H446, 24 h; H446 (Lung); read-out: AZD5991 24h GI50
Description: as §4

Sudhl2 = assay: Cell viability assay; format: cell-based; conditions: Homo sapiens, SU-DHL-2, 24 h; Sudhl2 (NHL); read-out: AZD5991 24h GI50
Description: as §4

A253 = assay: Cell viability assay; format: cell-based; conditions: Homo sapiens, 24 h; A253 (Others); read-out: AZD5991 24h GI50
Description: as §4

A375 = assay: Cell viability assay; format: cell-based; conditions: Homo sapiens, A-375, 24 h; A375 (Skin); read-out: AZD5991 24h GI50
Description: as §4

Sudhl16 = assay: Cell viability assay; format: cell-based; conditions: Homo sapiens, SU-DHL-16, 24 h; Sudhl16 (NHL); read-out: AZD5991 24h GI50
Description: as §4

T2 sequence (Q16548 1-151): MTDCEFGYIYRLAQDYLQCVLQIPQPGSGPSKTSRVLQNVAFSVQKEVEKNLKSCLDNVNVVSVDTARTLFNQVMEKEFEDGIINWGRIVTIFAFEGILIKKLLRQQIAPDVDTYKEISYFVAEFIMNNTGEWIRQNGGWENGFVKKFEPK
T3 sequence (P10415 1-212): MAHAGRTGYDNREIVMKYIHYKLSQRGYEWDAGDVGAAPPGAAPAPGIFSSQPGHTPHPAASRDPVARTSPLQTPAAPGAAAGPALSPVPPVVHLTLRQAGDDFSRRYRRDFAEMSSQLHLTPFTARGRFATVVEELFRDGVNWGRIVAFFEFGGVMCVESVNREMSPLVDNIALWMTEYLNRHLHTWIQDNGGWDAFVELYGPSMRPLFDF
Sequence of Bcl-xL (Q07817 1-209): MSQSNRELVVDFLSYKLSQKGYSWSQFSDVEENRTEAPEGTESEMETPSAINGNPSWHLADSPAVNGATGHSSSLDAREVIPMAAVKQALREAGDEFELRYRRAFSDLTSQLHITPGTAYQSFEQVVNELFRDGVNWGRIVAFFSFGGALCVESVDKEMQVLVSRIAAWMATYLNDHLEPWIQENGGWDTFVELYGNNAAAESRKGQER

`Cc1c2c(nn1C)CSCc1cc(n(C)n1)CSc1cc(c3ccccc3c1)OCCCc1c(C(=O)O)n(C)c3c-2c(Cl)ccc13` (atropisomer, axis not shown; (Ra)) [(Ra)-7] showed a GI50 (MM1R) of 0.087 µM, a GI50 (U2OS) of 20.6 µM and a GI50 (GRANTA519) of 19.3 µM. For the same molecule, the pIC50 (Bcl-w; FRET) was 4.31, the pKi (Bcl-w; calculated from FRET IC50) was 4.60 and the pIC50 (Bfl-1; FRET) was 4.62. For the same molecule, the pKi (Bfl-1; calculated from FRET IC50) was 4.92, the pIC50 (Bcl-2; FRET) was 4.70 and the pKi (Bcl-2; calculated from FRET IC50) was 5.17. It also gave a pIC50 (Bcl-xL; FRET) of 4.44, a pKi (Bcl-xL; calculated from FRET IC50) of 4.74 and a GI50 (GIST T1) of over 30 µM. For the same molecule, the GI50 (KG1a) was 1.43 µM, the GI50 (HCC827) was 20.1 µM and the GI50 (U266B1) was over 30 µM. It also gave a GI50 (H446) of 0.319 µM, a GI50 (Sudhl2) of 0.585 µM and a GI50 (A253) of over 30 µM. For the same molecule, the GI50 (A375) was 13.5 µM and the GI50 (Sudhl16) was 0.119 µM.

From publication PMC6297231 (Nature Communications, 2018)
